Results: ChEMBL document CHEMBL1146032, “Synthesis and biological activity of nociceptin/orphanin FQ(1-13)NH2 analogues modified in 9 and/or 13 position” (Bioorg Med Chem Lett, 2006)
“And” between values parts separate entries of the source, which are not always exact repeats. Equal entries are not always repeated. Where a SMILES comes first, the peptide text is derived from it. [ ]: non-standard residue; d: D form. Dap = NC[C@H](N)C(=O)O

Key:
Format in all cases: functional, tissue-based
[1] = target: Nociceptin receptor (Rattus norvegicus) (UniProt P35370); assay: (§1) Activity against LFES-evoked contraction of Wistar rat vas deferens in presence of naloxone
Nociceptin receptor [2] = target: T1, Nociceptin receptor (Rattus norvegicus, UniProt P35370); assay: as §1
[3] = target: Nociceptin receptor (Rattus norvegicus) (UniProt P35370); assay: Activity against LFES-evoked contraction of Wistar rat vas deferens relative to N/OFQ(1-13)NH2 in presence of naloxone
[4] = target: Nociceptin receptor (Rattus norvegicus) (UniProt P35370); assay: Activity against LFES-evoked contraction of Wistar rat vas deferens relative to N/OFQ(1-13)NH2
[5] = target: Nociceptin receptor (Rattus norvegicus) (UniProt P35370); assay: (§2) Activity against LFES-evoked contraction of Wistar rat vas deferens
Nociceptin receptor [6] = target: T1, Nociceptin receptor; assay: as §2

T1 sequence (P35370 whole entry): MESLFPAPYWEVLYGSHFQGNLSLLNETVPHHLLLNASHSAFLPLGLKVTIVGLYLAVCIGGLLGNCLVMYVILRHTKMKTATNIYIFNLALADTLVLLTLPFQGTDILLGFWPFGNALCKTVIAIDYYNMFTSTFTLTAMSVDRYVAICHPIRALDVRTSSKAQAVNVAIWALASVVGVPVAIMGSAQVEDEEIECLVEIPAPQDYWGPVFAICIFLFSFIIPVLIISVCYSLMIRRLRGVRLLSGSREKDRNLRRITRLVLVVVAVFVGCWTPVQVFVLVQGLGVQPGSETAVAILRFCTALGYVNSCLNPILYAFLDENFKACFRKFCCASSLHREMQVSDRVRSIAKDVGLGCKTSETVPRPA
Sequence of Nociceptin receptor (Rattus norvegicus) (P35370 whole entry): as above

Compound	Emax [1]	EC50 (Nociceptin receptor [2])	Activity [3]	Activity [4]	Emax [5]	EC50 (Nociceptin receptor [6])
C[C@H](NC(=O)CNC(=O)[C@@H](NC(=O)[C@H](Cc1ccccc1)NC(=O)CNC(=O)CNC(=O)[C@@H](N)Cc1ccccc1)[C@@H](C)O)C(=O)N[C@@H](CCCN=C(N)N)C(=O)N[C@@H](CN)C(=O)N[C@@H](CO)C(=O)N[C@@H](C)C(=O)N[C@@H](CCCN=C(N)N)C(=O)N[C@@H](CN)C(N)=O (H-FGGFTGAR[Dap]SAR[Dap]-NH2)	-46%	6.17 µM	0.06	0.25	-54%	2.34 µM
C[C@H](NC(=O)CNC(=O)[C@@H](NC(=O)[C@H](Cc1ccccc1)NC(=O)CNC(=O)CNC(=O)[C@@H](N)Cc1ccccc1)[C@@H](C)O)C(=O)N[C@@H](CCCN=C(N)N)C(=O)N[C@@H](CCCCN)C(=O)N[C@@H](CO)C(=O)N[C@@H](C)C(=O)N[C@@H](CCCN=C(N)N)C(=O)N[C@@H](CCCN)C(N)=O	-33% and -49%	9.33 µM and 11 µM	0.04	0.09 and 0.05	-60% and -57%	6.17 µM and 11.2 µM
C[C@H](NC(=O)CNC(=O)[C@@H](NC(=O)[C@H](Cc1ccccc1)NC(=O)CNC(=O)CNC(=O)[C@@H](N)Cc1ccccc1)[C@@H](C)O)C(=O)N[C@@H](CCCNC(=N)N)C(=O)N[C@@H](CCCCN)C(=O)N[C@@H](CO)C(=O)N[C@@H](C)C(=O)N[C@@H](CCCNC(=N)N)C(=O)N[C@@H](CCCCN)C(N)=O	-49%	–	1	1	-46%	–
C[C@H](NC(=O)CNC(=O)[C@@H](NC(=O)[C@H](Cc1ccccc1)NC(=O)CNC(=O)CNC(=O)[C@@H](N)Cc1ccccc1)[C@@H](C)O)C(=O)N[C@@H](CCCN=C(N)N)C(=O)N[C@@H](CCCN)C(=O)N[C@@H](CO)C(=O)N[C@@H](C)C(=O)N[C@@H](CCCN=C(N)N)C(=O)N[C@@H](CCCCN)C(N)=O	-77%	0.214 µM	1.56	2.45	-71%	0.234 µM
C[C@H](NC(=O)CNC(=O)[C@@H](NC(=O)[C@H](Cc1ccccc1)NC(=O)CNC(=O)CNC(=O)[C@@H](N)Cc1ccccc1)[C@@H](C)O)C(=O)N[C@@H](CCCN=C(N)N)C(=O)N[C@@H](CCCN)C(=O)N[C@@H](CO)C(=O)N[C@@H](C)C(=O)N[C@@H](CCCN=C(N)N)C(=O)N[C@@H](CCCN)C(N)=O	-70%	0.977 µM	2.45	1.41	-56%	0.407 µM
